Measurements: US20260207718A1, “METHODS FOR TREATING LATE ONSET POMPE DISEASE IN PEDIATRIC PATIENTS” (Amicus Therapeutics, Inc., priority 2022, published 2026)
Like-named read-outs stand apart in the source and are kept apart here.

Columns and labels:
[1] = ATB200-04 trial: population PK exposure matching of adolescents to adults; assay type: in vivo, human; details: for AUC(0-t) / Cmax: human, plasma
Description: The ATB200-04 trial seeks to evaluate the safety and tolerability of cipaglucosidase alfa/miglustat co-administration.
Subjects have scheduled PK assessments at Day 1, Week 26, and Week 52 for plasma total GAA protein and miglustat.
Population PK parameters include clearance (CL) and volume of distribution (V), estimated from total GAA protein concentrations and miglustat concentrations in plasma.
Methods for Exposure Matching. Pediatric PK data from both clinical trials and expanded access programs were used for exposure matching to adult PK data. […] The previous base population PK models from cipaglucosidase alfa-atga and miglustat were rerun with the updated dataset. To account for longitudinal changes in body size for pediatric patients, the time-varying body weight was used to estimate the effects of body size on PK parameters in the population PK models. The effect of age at baseline on clearance was also evaluated in the PK models. Individual AUC0-24 and Cmax of cipaglucosidase alfa and miglustat were predicted from the PK empirical Bayes estimates (EBEs). The time-varying body weight and baseline age in pediatrics were used in the exposure prediction. PK exposures (AUC0-24 and Cmax) were predicted for each PK visit during the study; Day 1-baseline, Week 26, and Week 52. Additionally, there were unscheduled PK visits for some subjects.
Results for Adolescent Subjects. […] The dose may have been adjusted at a later visit for exposure matching. It should be noted however, that in the early stage of the study, all subjects were started at 20 mg/kg to evaluate safety.

[2] = tested on: pediatric subjects with late-onset Pompe disease; test: ATB200-04 trial: safety in pediatric subjects with LOPD; assay type: in vivo, human; details: ERT-experienced subject, Cohort 2
Description: This study includes subjects with Pompe disease except classic IOPD.
Safety assessments include monitoring of adverse events (AEs), clinical laboratory tests (chemistry, hematology, and urinalysis), physical examinations, vital signs, 12-lead electrocardiogram (ECGs), and detection of cipaglucosidase alfa antibodies.

## CCCCN1C[C@H](O)[C@@H](O)[C@H](O)[C@H]1CO [miglustat, (2R,3R,4R,5S)-1-butyl-2-(hydroxymethyl) piperidine-3,4,5-triol]
[1]; adults N=100, adolescents N=8
  predicted AUC0-24 and Cmax for adolescents relative to adult 5th and 95th percentile range: for most adolescents are within the adult 5th and 95th percentile range
[1]; oral, miglustat, predicted, Adults N=100, read-out: AUC0-24, Geo Mean
  AUC(0-t): 20400 ng·h/mL
[1]; oral, miglustat, predicted, Adults N=100, read-out: AUC0-24, Mean
  AUC(0-t): 20700 ng·h/mL
[1]; oral, miglustat, predicted, Adults N=100, read-out: AUC0-24, Median
  AUC(0-t): 20700 ng·h/mL
[1]; oral, miglustat, predicted, Adults N=100, read-out: AUC0-24, P5
  AUC(0-t): 15200 ng·h/mL
[1]; oral, miglustat, predicted, Adults N=100, read-out: AUC0-24, P95
  AUC(0-t): 28300 ng·h/mL
[1]; oral, miglustat, predicted, Adults N=100, read-out: Cmax, Geo Mean
  Cmax: 2370 ng/mL
[1]; oral, miglustat, predicted, Adults N=100, read-out: Cmax, Mean
  Cmax: 2420 ng/mL
[1]; oral, miglustat, predicted, Adults N=100, read-out: Cmax, Median
  Cmax: 2370 ng/mL
[1]; oral, miglustat, predicted, Adults N=100, read-out: Cmax, P5
  Cmax: 1720 ng/mL
[1]; oral, miglustat, predicted, Adults N=100, read-out: Cmax, P95
  Cmax: 3280 ng/mL
[1]; po, 195 mg, adolescent Subject 5, 195 mg, Week 52, 43.7 kg, read-out: individual predicted AUC0-24
  AUC(0-t): 21000 ng·h/mL
[1]; po, 195 mg, adolescent Subject 5, 195 mg, Week 52, 43.7 kg, read-out: individual predicted Cmax
  Cmax: 2330 ng/mL
[1]; po, 195 mg, adolescent Subject 6, 195 mg, Week 52, 36.5 kg, read-out: individual predicted AUC0-24
  AUC(0-t): 13500 ng·h/mL
[1]; po, 195 mg, adolescent Subject 6, 195 mg, Week 52, 36.5 kg, read-out: individual predicted Cmax
  Cmax: 1700 ng/mL
[1]; po, 260 mg, adolescent Subject 1, 260 mg, Week 52, 77.9 kg, read-out: individual predicted AUC0-24
  AUC(0-t): 20400 ng·h/mL
[1]; po, 260 mg, adolescent Subject 1, 260 mg, Week 52, 77.9 kg, read-out: individual predicted Cmax
  Cmax: 2960 ng/mL
[1]; po, 260 mg, adolescent Subject 2, 260 mg, Week 52, 83.8 kg, read-out: individual predicted AUC0-24
  AUC(0-t): 17100 ng·h/mL
[1]; po, 260 mg, adolescent Subject 2, 260 mg, Week 52, 83.8 kg, read-out: individual predicted Cmax
  Cmax: 1910 ng/mL
[1]; po, 260 mg, adolescent Subject 3, 260 mg, Week 52, 64.6 kg, read-out: individual predicted AUC0-24
  AUC(0-t): 20300 ng·h/mL
[1]; po, 260 mg, adolescent Subject 3, 260 mg, Week 52, 64.6 kg, read-out: individual predicted Cmax
  Cmax: 2170 ng/mL
[1]; po, 260 mg, adolescent Subject 4, 260 mg, Week 64, 53.3 kg, read-out: individual predicted AUC0-24
  AUC(0-t): 22300 ng·h/mL
[1]; po, 260 mg, adolescent Subject 4, 260 mg, Week 64, 53.3 kg, read-out: individual predicted Cmax
  Cmax: 2590 ng/mL
[1]; po, 260 mg, adolescent Subject 7, 260 mg, Week 52, 60.3 kg, read-out: individual predicted AUC0-24
  AUC(0-t): 15000 ng·h/mL
[1]; po, 260 mg, adolescent Subject 7, 260 mg, Week 52, 60.3 kg, read-out: individual predicted Cmax
  Cmax: 1850 ng/mL
[1]; po, 260 mg, adolescent Subject 8, 260 mg, Week 72, 38.5 kg, read-out: individual predicted AUC0-24
  AUC(0-t): 19600 ng·h/mL
[1]; po, 260 mg, adolescent Subject 8, 260 mg, Week 72, 38.5 kg, read-out: individual predicted Cmax
  Cmax: 1800 ng/mL
[1]; po, miglustat, predicted, Adolescents N=8, read-out: AUC0-24, Geo Mean
  AUC(0-t): 18400 ng·h/mL
[1]; po, miglustat, predicted, Adolescents N=8, read-out: AUC0-24, Mean
  AUC(0-t): 18700 ng·h/mL
[1]; po, miglustat, predicted, Adolescents N=8, read-out: AUC0-24, Median
  AUC(0-t): 20000 ng·h/mL
[1]; po, miglustat, predicted, Adolescents N=8, read-out: AUC0-24, P5
  AUC(0-t): 14100 ng·h/mL
[1]; po, miglustat, predicted, Adolescents N=8, read-out: AUC0-24, P95
  AUC(0-t): 21800 ng·h/mL
[1]; po, miglustat, predicted, Adolescents N=8, read-out: Cmax, Geo Mean
  Cmax: 2130 ng/mL
[1]; po, miglustat, predicted, Adolescents N=8, read-out: Cmax, Mean
  Cmax: 2160 ng/mL
[1]; po, miglustat, predicted, Adolescents N=8, read-out: Cmax, Median
  Cmax: 2040 ng/mL
[1]; po, miglustat, predicted, Adolescents N=8, read-out: Cmax, P5
  Cmax: 1740 ng/mL
[1]; po, miglustat, predicted, Adolescents N=8, read-out: Cmax, P95
  Cmax: 2830 ng/mL
[1]; miglustat, 90% CI (79.51, 101.54)
  Cmax, geometric LSM Ratio adolescents to adults: 89.85
[1]; miglustat, 90% CI (80.58, 101.21)
  AUC0-24, geometric LSM Ratio adolescents to adults: 90.31
[2]
  investigator-assessed relatedness of anaphylaxis event (both episodes): unrelated
